Values quoted from earlier work, collected in patent US6649645B1 (Pharmacia Corporation, priority 1998, dated 2003).

Tests used:
[1] = Cynomolgus monkeys, orally for six weeks
[2] = test system: fibroblast growth factor-induced corneal angiogenesis; settings: rats; Masferrer et al. 1999
[3] = mice, Milas et al., Cancer Res. 1990

CN1C(C(=O)Nc2ccccn2)=C(O)c2sc(Cl)cc2S1(=O)=O [lornoxicam]
Toxicity [1]: 1 to 2 mg/kg/day

Cc1ccc(-c2cc(C(F)(F)F)nn2-c2ccc(S(N)(=O)=O)cc2)cc1 [Celecoxib, Benzenesulfonamide, 4-(5-(4-methylphenyl)-3-(trifluoromethyl)-1H-pyrazol-1-yl)-]
inhibition of fibroblast growth factor-induced corneal angiogenesis [2]: potent inhibition

COc1ccc2c(c1)c(CC(=O)O)c(C)n2C(=O)c1ccc(Cl)cc1 [indomethacin]
tumor cure rate after radiotherapy (tumor; [3]): increases the tumor cure rate
tumor growth delay after radiotherapy (tumor; [3]): prolongs tumor growth delay
enhancement factor (tumor curability) (tumor; printed as 'radiation alone'): 1.26
enhancement factor (tumor growth delay) (tumor; radiation-indomethacin): 1.4
